Test results from PubChem BioAssay AID248 (DTP/NCI, 2004).
Values joined by “and” are separate entries in the source; they are usually repeats but may differ in a detail not shown here. Equal entries are not always repeated. Toxic doses and inconclusive results are not listed.

Test system: L1210 leukemia ip in BDF1 mice, survival T/C
Assay: NCI In Vivo Anticancer Drug Screen. Data for tumor model L1210 Leukemia (intraperitoneal) in B6D2F1 (BDF1) mice
Conditions: endpoint: mean survival time, higher = longer survival
Outline: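 Tumor cells were implanted, animals were treated, and survival was followed. The result divides the treated measurement by the vehicle-control measurement.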

[1] = dose: 25.0 mg/kg/injection, schedule: Q01DX009 (ip), vehicle: saline
[2] = dose: 50.0 mg/kg/injection, schedule: Q01DX009 (ip), vehicle: saline
[3] = dose: 100.0 mg/kg/injection, schedule: Q01DX009 (ip), vehicle: saline
[4] = dose: 200.0 mg/kg/injection, schedule: Q01DX009 (ip), vehicle: saline
[5] = dose: 100.0 mg/kg/injection, schedule: Q04DX003 (ip), vehicle: other
[6] = dose: 200.0 mg/kg/injection, schedule: Q04DX003 (ip), vehicle: other
[7] = dose: 400.0 mg/kg/injection, schedule: Q04DX003 (ip), vehicle: other
[8] = dose: 100.0 mg/kg/injection, schedule: Q04DX002 (ip), vehicle: saline
[9] = dose: 200.0 mg/kg/injection, schedule: Q04DX002 (ip), vehicle: saline
[10] = dose: 400.0 mg/kg/injection, schedule: Q04DX002 (ip), vehicle: saline
[11] = dose: 100.0 mg/kg/injection, schedule: Q01DX009 (ip), vehicle: Klucel (hydroxypropylcellulose) (HPC)
[12] = dose: 100.0 mg/kg/injection, schedule: Q04DX003 (ip), vehicle: Klucel (hydroxypropylcellulose) (HPC)
[13] = dose: 200.0 mg/kg/injection, schedule: Q01DX009 (ip), vehicle: Klucel (hydroxypropylcellulose) (HPC)
[14] = dose: 100.0 mg/kg/injection, schedule: Q01DX001 (ip), vehicle: carboxymethylcellulose (CMC)
[15] = dose: 200.0 mg/kg/injection, schedule: Q01DX001 (ip), vehicle: carboxymethylcellulose (CMC)
[16] = dose: 200.0 mg/kg/injection, schedule: Q04DX003 (ip), vehicle: Klucel (hydroxypropylcellulose) (HPC)
[17] = dose: 400.0 mg/kg/injection, schedule: Q04DX003 (ip), vehicle: Klucel (hydroxypropylcellulose) (HPC)

Q: What does the source list for `CCOC(=O)CNC(=O)CNC(=O)CNC(=O)CCCCSc1ncnc2nc[nH]c12`?
A: T/C [1]: 102 % of control; T/C (dose: 25.0 mg/kg/injection, schedule: Q01DX009 (oral), vehicle: saline): 106 % of control; T/C [2]: 110 % of control; T/C (dose: 50.0 mg/kg/injection, schedule: Q01DX009 (oral), vehicle: saline): 90 % of control; T/C [3]: 96 % of control; T/C (dose: 100.0 mg/kg/injection, schedule: Q01DX009 (oral), vehicle: saline): 98 % of control; T/C [4]: 104 % of control; T/C (dose: 200.0 mg/kg/injection, schedule: Q01DX009 (oral), vehicle: saline): 95 % of control; T/C (dose: 400.0 mg/kg/injection, schedule: Q01DX009 (ip), vehicle: saline): 98 % of control; T/C (dose: 400.0 mg/kg/injection, schedule: Q01DX009 (oral), vehicle: saline): 114 % of control; T/C (dose: 800.0 mg/kg/injection, schedule: Q01DX009 (ip), vehicle: saline): 96 % of control; T/C (dose: 800.0 mg/kg/injection, schedule: Q01DX009 (oral), vehicle: saline): 101 % of control

Q: Which results are given for `Cc1nc(Cl)cc(Cl)c1C`?
A: T/C [5]: 106 % of control; T/C (dose: 178.0 mg/kg/injection, schedule: Q04DX003 (ip), vehicle: other): 103 % of control; T/C [6]: 104 % of control; T/C (dose: 266.0 mg/kg/injection, schedule: Q04DX003 (ip), vehicle: other): 103 % of control; T/C [7]: 89 % of control

Q: How did the T/C (dose: 100.0 mg/kg/injection, schedule: Q01DX001 (ip), vehicle: saline) turn out when `O=C(O)c1cc(=O)c2ccc(Cl)cc2[nH]1` was run?
A: 90 % of control

Q: And the T/C [5]?
A: 88 % of control

Q: What about the T/C (dose: 200.0 mg/kg/injection, schedule: Q01DX001 (ip), vehicle: saline) of the same molecule?
A: 98 % of control

Q: What about the T/C [6] of the same molecule?
A: 91 % of control

Q: And the T/C (dose: 400.0 mg/kg/injection, schedule: Q01DX001 (ip), vehicle: saline)?
A: 102 % of control

Q: What about the T/C [7] of the same molecule?
A: 98 % of control

Q: What does the source list for `Nc1cccc(C(=O)NCc2cccnc2)c1`?
A: T/C [8]: 110 % of control; T/C [9]: 107 % of control; T/C [10]: 104 % of control

Q: What does the source list for `O=P(NCCCl)(Nc1ccccc1)Nc1ccccc1`?
A: T/C (dose: 50.0 mg/kg/injection, schedule: Q01DX009 (ip), vehicle: Klucel (hydroxypropylcellulose) (HPC)): 112 % of control; T/C [11]: 108 % of control; T/C [12]: 90 % of control; T/C [13]: 108 % of control

Q: How did the T/C [14] turn out when `CC(=O)c1c(O)cc(O)cc1-c1cc(=O)c2c(O)ccc(C(C)=O)c2o1` was run?
A: 103 % of control

Q: And the T/C [15]?
A: 94 % of control

Q: With `CC(Cc1ccccc1)NCCn1cnc2c1c(=O)n(C)c(=O)n2C` (configuration not stated) as the molecule, how does the T/C (dose: 6.25 mg/kg/injection, schedule: Q01DX009 (ip), vehicle: saline) read?
A: 94 % of control

Q: And the T/C (dose: 12.5 mg/kg/injection, schedule: Q01DX009 (ip), vehicle: saline)?
A: 98 % of control

Q: And the T/C [1]?
A: 94 % of control

Q: And the T/C [2]?
A: 102 % of control

Q: What does the source list for `COc1cc2c3c(c1)C(=O)CCN3CCC2`?
A: T/C [12]: 93 % of control; T/C [16]: 93 % of control

Q: `NC(N)=Nc1ccc(C(=O)Oc2ccc([N+](=O)[O-])cc2CN2CCCCC2)cc1` was tested. Which T/C (dose: 0.5 mg/kg/injection, schedule: Q04DX003 (ip), vehicle: water) did it give?
A: 102 % of control

Q: And the T/C (dose: 1.0 mg/kg/injection, schedule: Q04DX003 (ip), vehicle: water)?
A: 110 % of control

Q: And the T/C (dose: 2.0 mg/kg/injection, schedule: Q04DX003 (ip), vehicle: water)?
A: 96 % of control

Q: And the T/C (dose: 3.12 mg/kg/injection, schedule: Q01DX009 (ip), vehicle: water)?
A: 93 % of control

Q: And the T/C (dose: 3.12 mg/kg/injection, schedule: Q04DX003 (ip), vehicle: water)?
A: 105 % of control

Q: And the T/C (dose: 4.0 mg/kg/injection, schedule: Q04DX003 (ip), vehicle: water)?
A: 102 % of control

Q: What about the T/C (dose: 6.25 mg/kg/injection, schedule: Q01DX009 (ip), vehicle: water) of the same molecule?
A: 96 % of control

Q: And the T/C (dose: 12.5 mg/kg/injection, schedule: Q01DX009 (ip), vehicle: water)?
A: 101 % of control

Q: And the T/C (dose: 12.5 mg/kg/injection, schedule: Q04DX003 (ip), vehicle: water)?
A: 108 % of control

Q: `C=CCOc1ccnc(SC)n1` was tested. Which T/C (dose: 75.0 mg/kg/injection, schedule: Q01DX009 (ip), vehicle: Klucel (hydroxypropylcellulose) (HPC)) did it give?
A: 98 % of control

Q: And the T/C (dose: 150.0 mg/kg/injection, schedule: Q01DX009 (ip), vehicle: Klucel (hydroxypropylcellulose) (HPC))?
A: 103 % of control

Q: And the T/C (dose: 300.0 mg/kg/injection, schedule: Q01DX009 (ip), vehicle: Klucel (hydroxypropylcellulose) (HPC))?
A: 90 % of control

Q: Which results are given for `Cc1ncc(CSCC(=O)O)c(N)n1`?
A: T/C [12]: 103 % of control; T/C [16]: 100 % of control; T/C [17]: 103 % of control

Q: Which results are given for `O=[N+]([O-])c1cccc(-n2cccc2)c1`?
A: T/C (dose: 100.0 mg/kg/injection, schedule: Q01DX001 (ip), vehicle: steriod suspending solution): 101 % of control; T/C (dose: 200.0 mg/kg/injection, schedule: Q01DX001 (ip), vehicle: steriod suspending solution): 103 % of control; T/C (dose: 400.0 mg/kg/injection, schedule: Q01DX001 (ip), vehicle: steriod suspending solution): 97 % of control

Q: For `CCCCOP(=O)(Nc1ccccc1)OCCCC`, which T/C (dose: 100.0 mg/kg/injection, schedule: Q04DX002 (sc), vehicle: olive oil, sesame oil, peanut oil) is on record?
A: 103 % of control

Q: What about the T/C (dose: 200.0 mg/kg/injection, schedule: Q04DX002 (sc), vehicle: olive oil, sesame oil, peanut oil) of the same molecule?
A: 103 % of control

Q: And the T/C (dose: 400.0 mg/kg/injection, schedule: Q04DX002 (sc), vehicle: olive oil, sesame oil, peanut oil)?
A: 90 % of control

Q: With `CCOC(=O)C(C(=O)CC)C(COC)C(=O)OC` (configuration not stated) as the molecule, how does the T/C (dose: 100.0 mg/kg/injection, schedule: Q01DX001 (ip), vehicle: other) read?
A: 92 % of control

Q: What about the T/C (dose: 200.0 mg/kg/injection, schedule: Q01DX001 (ip), vehicle: other) of the same molecule?
A: 96 % of control

Q: And the T/C (dose: 400.0 mg/kg/injection, schedule: Q01DX001 (ip), vehicle: other)?
A: 97 % of control

Q: `BrCCC[CH2][Sn]([c]1ccccc1)([c]1ccccc1)[c]1ccccc1` was tested. Which T/C [2] did it give?
A: 100 % of control

Q: And the T/C [3]?
A: 100 % of control

Q: What about the T/C [4] of the same molecule?
A: 100 % of control

Q: For `CC12CC3CC(C)(C1)CC(Br)(C3)C2`, which T/C (dose: 50.0 mg/kg/injection, schedule: Q01DX001 (ip), vehicle: carboxymethylcellulose (CMC)) is on record?
A: 104 % of control

Q: And the T/C [14]?
A: 101 % of control

Q: What about the T/C [15] of the same molecule?
A: 113 % of control

Q: What about the T/C (dose: 400.0 mg/kg/injection, schedule: Q01DX001 (ip), vehicle: carboxymethylcellulose (CMC)) of the same molecule?
A: 107 % of control

Q: What does the source list for `CCOC(=O)C1(NC(=O)N(CCCl)N=O)CCCCC1`?
A: T/C (dose: 16.0 mg/kg/injection, schedule: Q01DX001 (ip), vehicle: other): 97 % of control; T/C (dose: 31.0 mg/kg/injection, schedule: Q01DX001 (ip), vehicle: other): 106 % of control; T/C (dose: 125.0 mg/kg/injection, schedule: Q01DX001 (ip), vehicle: other): 188 % of control and 220 % of control; T/C (dose: 250.0 mg/kg/injection, schedule: Q01DX001 (ip), vehicle: other): 296 % of control and 317 % of control; T/C (dose: 375.0 mg/kg/injection, schedule: Q01DX001 (ip), vehicle: other): 216 % of control; T/C (dose: 500.0 mg/kg/injection, schedule: Q01DX001 (ip), vehicle: other): 194 % of control and 322 % of control; T/C (dose: 750.0 mg/kg/injection, schedule: Q01DX001 (ip), vehicle: other): 331 % of control; T/C (dose: 1000.0 mg/kg/injection, schedule: Q01DX001 (ip), vehicle: other): 295 % of control

Q: With `Cc1ncc([N+](=O)[O-])n1CCN1CCOCC1` as the molecule, how does the T/C [8] read?
A: 102 % of control

Q: And the T/C [9]?
A: 96 % of control

Q: What about the T/C [10] of the same molecule?
A: 98 % of control

Q: With `CC1(CC(=O)O)CCc2ccccc2C1=O` (configuration not stated) as the molecule, how does the T/C [11] read?
A: 98 % of control

Q: And the T/C [12]?
A: 98 % of control

Q: What about the T/C [13] of the same molecule?
A: 94 % of control

Q: What about the T/C [16] of the same molecule?
A: 96 % of control

Q: And the T/C (dose: 400.0 mg/kg/injection, schedule: Q01DX009 (ip), vehicle: Klucel (hydroxypropylcellulose) (HPC))?
A: 100 % of control

Q: What about the T/C [17] of the same molecule?
A: 102 % of control

Q: For `Clc1ccc(/C=N/Nc2nc3ccccc3s2)cc1Cl`, which T/C (dose: 40.0 mg/kg/injection, schedule: Q01DX Z (ip), vehicle: methylcellulose (MC)) is on record?
A: 88 % of control

Q: What about the T/C (dose: 60.0 mg/kg/injection, schedule: Q01DX Z (ip), vehicle: methylcellulose (MC)) of the same molecule?
A: 103 % of control

Q: What about the T/C (dose: 90.0 mg/kg/injection, schedule: Q01DX Z (ip), vehicle: methylcellulose (MC)) of the same molecule?
A: 94 % of control

Q: How did the T/C (dose: 100.0 mg/kg/injection, schedule: Q04DX002 (ip), vehicle: other) turn out when `COc1cc(C(=O)O)cc(OC)c1OC` was run?
A: 103 % of control

Q: What about the T/C (dose: 200.0 mg/kg/injection, schedule: Q04DX002 (ip), vehicle: other) of the same molecule?
A: 98 % of control

Q: And the T/C (dose: 400.0 mg/kg/injection, schedule: Q04DX002 (ip), vehicle: other)?
A: 98 % of control
